Source: US20220016049A1, “TISSUE REPAIR” (Regenall Limited, priority 2019, published 2022)

What was measured:
Tendon injury = Tendon injury in a horse, recovery following treatment with vitamin A (case report); assay type: in vivo; conditions: retinyl palmitate oral 750,000 IU twice daily, at least 4 weeks
From the text: Tendon Injury—Recovery Following Treatment with Vitamin A [table] [table] Treatment with Vitamin A was initiated approximately 20 days after the initial injury. Retinyl palmitate (93.8% Retinol Equivalent) Oral 750,000 IU […] Continuing (at least 4 weeks) Functional recovery has been good considering the severity of the lesion. […] It is not uncommon for such lesions to take between 12 to 18 months to heal.

Spinal cord injury = assay: Patient-reported outcome measure, spinal cord injury, recovery following treatment with vitamin A; assay type: in vivo, human
From the text: Patient-Reported Outcome Measure
Spinal Cord Injury—Recovery Following Treatment with Vitamin A
Vitamin A 50,000 IU (from Retinyl palmitate and fish liver oil)
Starting in October 2018. For three months taking vitamin A 10,000×3. Increasing in end January 2019 10,000×5.
Vitamin A (from cod liver oil and vitamin A palmitate)
For 3 months 3 tablets a day and for 3 months 5 tablets a day
21 years later in February 2019
I take 50,000 IU in one administration in the morning daily
Continuing: Almost 2 months

[1] = horse; cited from earlier work

## Vitamin A
Tendon injury; Horse subject 1 (polo pony, 14 years), started approximately 20 days after injury
  Functional recovery: good
Tendon injury; Horse subject 1
  Size of the lesion (ultrasonography): good reduction in the size of the lesion
Spinal cord injury; Human Subject 1, injury 1963 (T4), oral 50,000 IU once daily, 3 months, started 56 years after injury
  Pain reduction (right lower back): 10-15%
Spinal cord injury; Human Subject 1, oral 50,000 IU once daily, 3 months
  Duration of pain: much less
Spinal cord injury; Human Subject 2, spinal stenosis, both legs paralyzed, oral 30,000 IU per day for 3 months from October 2018
  First recovery found (walking control, balance): more walking control and balance
Spinal cord injury; Human Subject 2, March 2019, oral 50,000 IU per day from end of January 2019
  Strength, balance and movement control: much stronger, more balanced, more movement control
Spinal cord injury; Human Subject 2, beginning of April 2019, oral 50,000 IU per day
  Walking without any support on even level: 30-50 meters
Spinal cord injury; Human Subject 3, disc/nerve pain around knee, oral 50,000 IU daily, 4-5 months
  Improvement of pain level: 80%
Spinal cord injury; Human Subject 4, injury at C4/C5 in 1998, oral 50,000 IU daily, almost 2 months, started 21 years after injury
  Neck flexibility: much more flexible
Spinal cord injury; Human Subject 4, oral 50,000 IU daily, almost 2 months
  Neck aching: largely disappeared
[1]
  Vitamin A toxicity level: around 1,000 IU/kg body weight (BW)/day
